In patent publication US20240246995A1, “PYRIMIDINONE DERIVATIVE AND PREPARATION METHOD THEREFOR, PHARMACEUTICAL COMPOSITION, AND USE” (SHANGHAI SIMR BIOTECHNOLOGY CO., LTD., priority 2021, published 2024):

Molecular target: T1, Lipoprotein-Related Phospholipase A2 (Lp-PLA2) in Human Plasma (Homo sapiens, UniProt Q13093)
T1 construct: 40 μL of equally-divided and thawed mixed human plasma is pre-added; from tissue; host or cells: mixed (pooled) human plasma
T1 sequence (Q13093 22-441): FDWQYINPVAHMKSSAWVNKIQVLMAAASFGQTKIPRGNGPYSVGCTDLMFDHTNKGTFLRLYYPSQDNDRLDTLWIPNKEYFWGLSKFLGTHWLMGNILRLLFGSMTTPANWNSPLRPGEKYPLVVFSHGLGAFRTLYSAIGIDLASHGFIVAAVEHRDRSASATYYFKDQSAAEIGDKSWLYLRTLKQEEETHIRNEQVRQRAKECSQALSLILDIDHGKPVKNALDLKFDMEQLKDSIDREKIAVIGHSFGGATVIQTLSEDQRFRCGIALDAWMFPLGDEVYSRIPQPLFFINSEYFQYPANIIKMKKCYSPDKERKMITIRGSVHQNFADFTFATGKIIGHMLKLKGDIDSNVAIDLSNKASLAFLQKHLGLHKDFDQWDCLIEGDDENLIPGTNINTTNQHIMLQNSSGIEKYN
Test: Determination of Lp-PLA2 in human plasma (Thio-PAF assay)
Assay type: biochemical
Conditions: mixed human plasma, 2-thio-PAF substrate, 30 minutes pre-incubation at room temperature
Description: Determination of Lipoprotein-Related Phospholipase A2 (Lp-PLA2) in Human Plasma.
Human plasma determination utilizes a thioester analogue of phosphatidylcholine (PAF), where hydrolysis leads to the formation of phospholipids containing free thiol groups. The amount of the thiol groups is continuously determined by reacting with CPM (7-diethylamino-3-(4′-maleimidophenyl)-4-methylcoumarin), which is maleimide with increased fluorescence after Michael addition of the thiol groups. This determination can detect the activity of Lp-PLA2 in human plasma, for example, determined by the specific inhibition of the Lp-PLA2 inhibitors.
Thio-PAF determination, as quenched 75 μL determination, is carried out. A compound source plate is prepared by preparing a 1:3 (volume) series of diluents of each compound in pure DMSO on a 96-well microplate. A Rainin multi-channel pipette is used to transfer 3 μL of a compound on the compound source plate into a 96-well microplate where 57 μL of a determination buffer is pre-added, and the compound on the source plate is diluted by 20 folds. The above determination buffer contains 50 mM HEPES (pH 7.4), 150 mM NaCl, and 1 mM CHAPS. A Rainin multi-channel pipette is used to transfer 1 μL of the compound subjected to 20-fold dilution into a 96-well Greiner 655076 (black) microplate where 40 μL of equally-divided and thawed mixed human plasma is pre-added. The plate is oscillated for 20 seconds in an Elisa plate oscillator to be mixed evenly. After 30 minutes of pre-incubation at the room temperature, a Rainin multi-channel pipette is used to add 10 μL of a substrate solution to a 96-well Greiner 655076 (black) microplate, and the substrate solution contains 2.5 mM 2-thio-PAF [from ethanol mother liquor], 32 μM CPM [from DMSO mother liquor] and 3.2 mM NEM (N-ethylmaleimide) [newly prepared in DMSO for each experiment] in a determination buffer composed of 50 mM HEPES (pH 7.4), 150 mM NaCl, and 1 mM CHAPS. After 2 minutes, 25 μL of a 5% trifluoroacetic acid (TFA) aqueous solution is used for quenching the reaction. The plate is centrifuged at 2000 rpm for 1 minute. A Biotek Synergy H1 (H1MF) Elisa reader is used to read the plate at ex:380/em:485. GraphPad Prism 6.0 and Excel are used for IC50 data, curve, and QC analysis.

| Compound | IC50 |
| --- | --- |
| O=c1nc(OCc2cc(F)c(Oc3ccnc(C(F)(F)F)c3)c(F)c2)cc2n1CCC1COCCN21 (centres unmarked) [Example 51, 2-((3,5-difluoro-4-((2-(trifluoromethyl)pyrid-4-yl)oxy)benzyl)oxy)-6,7,7a,8,10,11-hexahydro-4H-pyrimidinyl [6′,1′:2,3]pyrimidine [6,1-c][1,4] oxazin-4-one] | 6.6 nM |
| O=c1nc(OCc2cc(F)c(Oc3ccc(Cl)c(C(F)(F)F)c3)c(F)c2)cc2n1CCC1COCCN21 (centres unmarked) [Example 52, 2-((4-(4-chloro-3-(trifluoromethyl)phenoxy)-3,5-di-fluorobenzyl)oxy)-6,7,7a,8,10,11-hexahydro-4H-pyrimidinyl [6′,1′:2,3] pyrimido[6,1-c][1,4] oxazin-4-one] | 10.6 nM |
| N#Cc1cc(COc2cc3n(c(=O)n2)CCC2COCCN32)ccc1Oc1cccc(C(F)(F)F)c1 (centres unmarked) [Example 53] | 7.3 nM |
| O=c1nc(OCc2cc(F)c(Oc3ccnc(OC(F)(F)F)c3)c(F)c2)cc2n1CCC1COCCN21 (centres unmarked) [Example 54, 2-((3,5-difluoro-4-((2-(trifluoro-methoxy)pyrid-4-yl)oxy)benzyl)oxy)-6,7,7a,8,10,11-hexahydro-4H-pyrimidinyl [6′,1′:2,3] pyrimidine [6,1-c][1,4] oxazin-4-one] | 5.3 nM |
| O=c1nc(OCc2cc(F)c(Oc3cnc(C(F)(F)F)nc3)c(F)c2)cc2n1CCC1COCCN21 (centres unmarked) [Example 55] | 13.7 nM |
| O=c1nc(OCCc2ccc(Oc3ccc(Cl)c(C(F)(F)F)c3)cc2)cc2n1CCC1COCCN21 (centres unmarked) [Example 56, 2-(4-(4-chloro-3-(trifluoromethyl)phenoxy)phenyl-ethoxy)-6,7,7a,8,10,11-hexahydro-4H-pyrimidinyl [6′,1′:2,3] pyrimidinyl[6,1-c] [1,4]oxazin-4-one] | 20.1 nM |
| O=c1nc(OCc2ccc(Oc3ccnc(C(F)(F)F)c3)c(F)c2)c(F)c2n1CC[C@]13CO[C@H](CN21)C3 [Example 57, (7aS,10S)-1-fluoro-2-((3-fluoro-4-((2-(trifluoromethyl)pyrid-4-yl)oxy)benzyl)oxy)-6,7,10, 11-tetrahydro-4H, 8H-7a,10-methyl-pyrimidinyl[6′,1′: 2,3]pyrimidinyl [6,1-c][1,4]oxazin-4-one] | 3.3 nM |
| O=c1nc(OCc2ccc(Oc3ccnc(C(F)(F)F)c3)c(F)c2)c(Cl)c2n1CC[C@]13CO[C@H](CN21)C3 [Example 58, (7aS,10S)-1-chloro-2-((3-fluoro-4-((2-(trifluoromethyl)pyrid-4-yl)oxy)benzyl)oxy)-6,7,10, 11-tetrahydro-4H, 8H-7a,10-methyl-pyrimidinyl[6′,1′: 2,3]pyrimidinyl [6,1-c][1,4]oxazin-4-one] | 3.4 nM |
| Cc1c(OCc2ccc(Oc3ccnc(C(F)(F)F)c3)c(F)c2)nc(=O)n2c1N1C[C@@H]3C[C@@]1(CC2)CO3 [Example 59, (7aS,10S)-2-((3-fluoro-4-((2-(trifluoromethyl)pyrid-4-yl)oxy)benzyl)oxy)-1-methyl-6,7,10, 11-tetrahydro-4H, 8H-7a,10-methyl-pyrimidinyl[6′,1′: 2,3]pyrimidinyl [6,1-c][1,4]oxazin-4-one] | 5.1 nM |
| CCc1c(OCc2ccc(Oc3ccnc(C(F)(F)F)c3)c(F)c2)nc(=O)n2c1N1C[C@@H]3C[C@@]1(CC2)CO3 [Example 60, (7aS,10S)-1-ethyl-2-((3-fluoro-4-((2-(trifluoromethyl)pyrid-4-yl)oxy)benzyl)oxy)-6,7,10, 11-tetrahydro-4H, 8H-7a,10-methyl-pyrimidinyl [6′,1′:2,3] pyrimidinyl[6,1-c] [1,4]oxazin-4-one] | 12.2 nM |
| O=c1nc(OCc2cc(F)c(Oc3ccnc(Cl)c3)c(F)c2)c(F)c2n1CC[C@]13CO[C@H](CN21)C3 [Example 61, (7aS, 10S)-2-((4-((2-chloropyrid-4-yl)oxy)-3,5-difluorobenzyl)oxy)-1-fluoro-6,7,10,11-tetrahydro-4H,8H-7a, 10-methylamino-pyrimidine[6′,1′:2,3] pyrimidine[6,1-c] [1,4]oxazin-4-one] | 7 nM |
| COc1c(OCc2ccc(Oc3ccnc(C(F)(F)F)c3)c(F)c2)nc(=O)n2c1N1C[C@@H]3C[C@@]1(CC2)CO3 [Example 62, (7aS,10S)-2-((3-fluoro-4-((2-(trifluoromethyl)pyrid-4-yl)oxy)benzyl)oxy)-1-methoxy-6,7,10, 11-tetrahydro-4H, 8H-7a,10-methyl-pyrimidinyl [6′,1′:2,3] pyrimidinyl[6,1-c] [1,4]oxazin-4-one] | 5.2 nM |
| COc1c(OCc2cc(F)c(Oc3ccnc(OC(F)(F)F)c3)c(F)c2)nc(=O)n2c1N1C[C@@H]3C[C@@]1(CC2)CO3 [Example 63] | 5.5 nM |
| N#Cc1c(OCc2ccc(Oc3ccnc(C(F)(F)F)c3)c(F)c2)nc(=O)n2c1N1CCCC1CC2 (centres unmarked) [Example 64, 2-((3-fluoro-4-((2-(trifluoromethyl)pyrid-4-yl)oxy)benzyl)oxy)-4-oxo-6,7,7a,8,9,10-hexahydro-4H-pyrimidinyl [1,6-a]pyrrolo [1,2-c]pyrimidine-1-nitrile] | 5.8 nM |
